Results on three compounds are retold here after US10406207B2, “Peptide conjugates of GLP-1 receptor agonists and gastrin and their use” (priority 2010, dated 2019).

Each structure is given as a SMILES string. Bridge positions count the residues as written; N and C are the ends. Square brackets hold non-standard residues; d marks the D form. Peptide text beside a SMILES is read from it. AEEA = NCCOCCOCC(=O)O

In one data set the target is T1, human CCK-B R (Homo sapiens, UniProt P32239).
T1 construct: expressed in transfected cells
T1 sequence (P32239 1-447): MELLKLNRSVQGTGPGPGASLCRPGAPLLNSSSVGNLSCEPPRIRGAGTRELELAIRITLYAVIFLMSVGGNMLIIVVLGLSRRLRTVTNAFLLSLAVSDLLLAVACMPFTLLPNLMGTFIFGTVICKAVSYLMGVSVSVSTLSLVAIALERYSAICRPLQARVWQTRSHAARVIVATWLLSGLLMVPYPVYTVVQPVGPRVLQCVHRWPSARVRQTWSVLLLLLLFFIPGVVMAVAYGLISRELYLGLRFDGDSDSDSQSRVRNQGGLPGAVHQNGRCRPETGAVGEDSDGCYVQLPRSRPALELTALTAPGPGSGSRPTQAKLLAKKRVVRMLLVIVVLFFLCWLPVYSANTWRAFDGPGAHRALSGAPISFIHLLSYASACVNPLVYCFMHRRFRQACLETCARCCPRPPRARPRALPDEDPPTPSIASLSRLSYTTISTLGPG
Nature of the data set: Human CCK-B receptor efficacy assay (AlphaScreen SureFire p-ERK). It is filed as cell-based. To be noted: Table 2; read-out: hCCK-B R EC50. On the technique in general: Bead proximity is the source of the signal in Alpha formats.

A short description of the next data set: in vivo. To be noted: mouse, sc, 100 nmol/kg; for half-life: C57Bl. More on the design: species or system C57Bl mice. How it is done: Two C57Bl mice were given a single subcutaneous dose of 100 nmol/kg of each peptide. […] At each time point, samples from two mice were taken. Plasma samples were analyzed after solid phase extraction (SPE) by liquid chromatography mass spectrometry (LC-MS/MS).

The target in another data set is T2, human GLP-1 R (Homo sapiens, UniProt P43220).
T2 construct: expressed in transfected cells
Nature of the data set: Human GLP-1 receptor efficacy assay (cAMP induction, FlashPlate). It is filed as cell-based. To be noted: Table 2; read-out: hGLP-1 R EC50. As to the method: On the day of analysis, growth medium was removed and the cells were washed once with 200 μl Tyrode buffer [Tyrode's Salts (9.6 g/l), 10 mM HEPES, pH 7.4]. […] The reaction was stopped by addition of 25 μl 0.5 M HCl and incubated on ice for 60 min.

T2 sequence (P43220 24-463): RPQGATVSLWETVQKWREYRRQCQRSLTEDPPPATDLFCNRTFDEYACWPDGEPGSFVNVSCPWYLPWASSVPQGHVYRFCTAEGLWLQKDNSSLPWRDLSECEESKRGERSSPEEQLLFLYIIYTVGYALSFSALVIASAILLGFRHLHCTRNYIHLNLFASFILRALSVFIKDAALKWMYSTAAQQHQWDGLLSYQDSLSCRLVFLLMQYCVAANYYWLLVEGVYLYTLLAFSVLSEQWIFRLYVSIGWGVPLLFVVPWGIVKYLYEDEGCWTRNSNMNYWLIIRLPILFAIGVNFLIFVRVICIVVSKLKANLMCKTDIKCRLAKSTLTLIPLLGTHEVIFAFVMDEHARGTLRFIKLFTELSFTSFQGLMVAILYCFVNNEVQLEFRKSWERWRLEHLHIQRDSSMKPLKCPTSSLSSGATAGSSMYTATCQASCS
Experimental for human CCK-B R: CCK-B Receptor (CCK-B R) Efficacy Assay:
In vitro effects of peptide conjugates of the invention were estimated by measuring p-ERK (using the AlphaScreen™ SureFire p-ERK assay) in HEK293 cells stably expressing the human and mouse CCK-B R (high-affinity Gastrin receptor), respectively. The Gastrin receptor efficacy assays (AlphaScreen™ SureFire p-ERK assay) were performed as follows:
The CCK-B R expressing cells in question were seeded at 20,000 cells/well in 100 μl growth medium [DMEM, 10% FCS, Penicillin (100 IU/ml), Streptomycin (100 μg/ml)] in a 96-well plate coated with poly-D-lysine. The cells were incubated in an incubator (37° C., 5% 002) for two days.
The growth medium was changed to 80 μl of serum-free medium [DMEM, Penicillin (100 IU/ml), Streptomycin (100 μg/ml)] per well, and incubation of the cells was continued for 19 hours in the incubator (37° C., 5% CO2).
After 19 hours, 20 μl of serum-free medium containing one of 5 different concentrations of peptide conjugate was added (performed in triplicate for each concentration), and the cells were incubated for 5 min. at room temperature. • 2. The stimulation medium was discarded by quickly turning the plate upside down, and 60 μl 1× lysis buffer (from the SureFire assay kit) was added per well. • 3. The plate was shaken on a plate-shaker for 5 min and then placed on ice. • 4. SureFire P-ERK assay: 4 μl of each supernatant was transferred to a 384 well proxiplate (Perkin Elmer). • 5. 4 μl of each of the two control lysates (unstimulated and stimulated) were added to the proxiplate in duplicate. • 6. […] 7 μl of the latter reaction buffer+activation buffer+beads per well were added in the proxiplate, the mix being resuspended carefully before addition to the wells. • 7. The plate was incubated for 2 hours in a dark box in a 22° C. incubator. • 8. The plate was analyzed on an Envision™ light-emission plate reader (Perkin-Elmer) using the appropriate reading program (Perkin-Elmer).

In general, EC50 refers to the concentration giving half of the maximal effect. As a reminder, the half-life is the time needed for the level to fall by half in the phase considered. The low end stands for rapid decline, the high end for slow decline. With `CC[C@H](C)[C@H](NC(=O)[C@H](Cc1ccccc1)NC(=O)[C@H](CC(C)C)NC(=O)[C@H](CCCNC(=N)N)NC(=O)[C@@H](NC(=O)[C@H](C)NC(=O)[C@H](CCC(=O)O)NC(=O)[C@H](CCC(=O)O)NC(=O)[C@H](CCC(=O)O)NC(=O)[C@H](CC(C)C)NC(=O)[C@H](Cc1ccc(O)cc1)NC(=O)[C@H](CCCCN)NC(=O)[C@H](CO)NC(=O)[C@H](CC(C)C)NC(=O)[C@H](CC(=O)O)NC(=O)[C@H](CO)NC(=O)[C@@H](NC(=O)[C@H](Cc1ccccc1)NC(=O)[C@@H](NC(=O)CNC(=O)[C@H](CCC(=O)O)NC(=O)CNC(=O)[C@@H](N)Cc1c[nH]cn1)[C@@H](C)O)[C@@H](C)O)C(C)C)C(=O)N[C@@H](CCC(=O)O)C(=O)N[C@@H](Cc1c[nH]c2ccccc12)C(=O)N[C@@H](CC(C)C)C(=O)N[C@@H](CCCCN)C(=O)NCCOCCOCC(=O)NCCOCCOCC(=O)N[C@@H](Cc1ccc(O)cc1)C(=O)NCC(=O)N[C@@H](Cc1c[nH]c2ccccc12)C(=O)N[C@@H](CC(C)C)C(=O)N[C@@H](CC(=O)O)C(=O)N[C@@H](Cc1ccccc1)C(N)=O` [Compound 74, [Tyr13,Leu14]Exendin-4(1-27)-Peg3-Peg3-[Leu4]Gastrin6] (H-HGEGTFTSDLSKYLEEEAVRLFIEWLK[AEEA][AEEA]YGWLDF-NH2), at human CCK-B R, the EC50 is 8.4 nM. In addition, in “in vivo”, the half-life was 3.6 h; the “Half-life and exposure (in words)” value was “superior to the rest”. In addition, on human GLP-1 R, the EC50 was determined as 0.05 nM.

With `CC[C@H](C)[C@H](NC(=O)[C@H](Cc1ccccc1)NC(=O)[C@H](CC(C)C)NC(=O)[C@H](CCCNC(=N)N)NC(=O)[C@@H](NC(=O)[C@H](C)NC(=O)[C@H](CCC(=O)O)NC(=O)[C@H](CCC(=O)O)NC(=O)[C@H](CCC(=O)O)NC(=O)[C@H](CCSC)NC(=O)[C@H](Cc1ccc(O)cc1)NC(=O)[C@H](CCCCN)NC(=O)[C@H](CO)NC(=O)[C@H](CC(C)C)NC(=O)[C@H](CC(=O)O)NC(=O)[C@H](CO)NC(=O)[C@@H](NC(=O)[C@H](Cc1ccccc1)NC(=O)[C@@H](NC(=O)CNC(=O)[C@H](CCC(=O)O)NC(=O)CNC(=O)[C@@H](N)Cc1c[nH]cn1)[C@@H](C)O)[C@@H](C)O)C(C)C)C(=O)N[C@@H](CCC(=O)O)C(=O)N[C@@H](Cc1ccccc1)C(=O)N[C@@H](CC(C)C)C(=O)N[C@@H](CCCCN)C(=O)NCCOCCOCC(=O)NCCOCCOCC(=O)N[C@@H](Cc1ccc(O)cc1)C(=O)NCC(=O)N[C@@H](Cc1c[nH]c2ccccc12)C(=O)N[C@@H](CC(C)C)C(=O)N[C@@H](CC(=O)O)C(=O)N[C@@H](Cc1ccccc1)C(N)=O` [Compound 75, [Tyr13,Phe25]Exendin-4(1-27)-Peg3-Peg3-[Leu4]Gastrin6] (H-HGEGTFTSDLSKYMEEEAVRLFIEFLK[AEEA][AEEA]YGWLDF-NH2), the EC50 on human CCK-B R worked out at 8.4 nM; at human GLP-1 R, 0.035 nM. In “in vivo”, this compound gave a half-life of 2.5 h.

`CC[C@H](C)[C@@H]1NC(=O)[C@H](Cc2ccccc2)NC(=O)[C@H](CC(C)C)NC(=O)[C@@H](NC(=O)[C@@H](NC(=O)[C@H](C)NC(=O)[C@H](CCC(=O)O)NC(=O)[C@H](CCC(=O)O)NC(=O)[C@H](CCC(=O)O)NC(=O)[C@H](CCSC)NC(=O)[C@H](CCC(N)=O)NC(=O)[C@H](CCCCN)NC(=O)[C@H](CO)NC(=O)[C@H](CC(C)C)NC(=O)[C@H](CC(=O)O)NC(=O)[C@H](CO)NC(=O)[C@@H](NC(=O)[C@H](Cc2ccccc2)NC(=O)[C@@H](NC(=O)CNC(=O)[C@H](CCC(=O)O)NC(=O)CNC(=O)[C@@H](N)Cc2c[nH]cn2)[C@@H](C)O)[C@@H](C)O)C(C)C)CCCCNC(=O)CC[C@@H](C(=O)N[C@@H](Cc2c[nH]c3ccccc23)C(=O)N[C@@H](CC(C)C)C(=O)N[C@@H](CCCCN)C(=O)N[C@@H](CC(N)=O)C(=O)NCCOCCOCC(=O)NCCOCCOCC(=O)N[C@@H](Cc2ccc(O)cc2)C(=O)NCC(=O)N[C@@H](Cc2c[nH]c3ccccc23)C(=O)N[C@@H](CC(C)C)C(=O)N[C@@H](CC(=O)O)C(=O)N[C@@H](Cc2ccccc2)C(N)=O)NC1=O` [Compound 80, Side chain-cyclo([Lys20,Glu24]Exendin-4(1-28)-Peg3-Peg3-[Leu4]Gastrin6] (H-HGEGTFTSDLSKQMEEEAVKLFIEWLKN[AEEA][AEEA]YGWLDF-NH2; lactam 20-24): the EC50 was 4 nM at human CCK-B R and 0.032 nM at human GLP-1 R. In addition, in the data set “in vivo”, the half-life was 1.9 h.
